This passage reports IC50 and Kd results from ChEMBL document CHEMBL5346912, “Discovery of 3,5-diaryl-1H-pyrazol-based ureas as potent RET inhibitors” (Eur J Med Chem, 2023).

Each structure is given as a SMILES string.

In test [1] the test system is BaF3. The test can be described thus: Antiproliferative activity against mouse BaF3 cells expressing CCDC6-RET-G810R incubated for 72 hrs by CCK8 assay. The conditions noted are these: BaF3, 72 h. Format: functional, cell-based.
The subject of test [2] is BaF3. The test can be described thus: Antiproliferative activity against mouse BaF3 cells expressing CCDC6-RET incubated for 72 hrs by CCK8 assay. Format: functional, cell-based. The conditions noted are these: BaF3, 72 h.
For test [3], the system named is BaF3. The test can be described thus: cells. Particulars: Mus musculus, BaF3, 72 h.
Description: Antiproliferative activity against mouse BaF3 cells incubated for 72 hrs by CCK8 assay
Test [4] concerns the target Proto-oncogene tyrosine-protein kinase receptor Ret (Homo sapiens, UniProt P07949). The test can be described thus: Binding affinity to RET (unknown origin) assessed as dissociation constant in presence of ATP by FRET based Z'-Lyte assay.
In test [5] the test system is BaF3. The test can be described thus: Antiproliferative activity against mouse BaF3 cells expressing CCDC6-RET-V804M incubated for 72 hrs by CCK8 assay. It is filed as functional, cell-based. Particulars: BaF3, 72 h.
In test [6] the test system is BaF3. The test can be described thus: Antiproliferative activity against mouse BaF3 cells expressing CCDC6-RET-G810C incubated for 72 hrs by CCK8 assay. It is filed as functional, cell-based. The conditions noted are these: BaF3, 72 h.

Chain of Proto-oncogene tyrosine-protein kinase receptor Ret (P07949 whole entry): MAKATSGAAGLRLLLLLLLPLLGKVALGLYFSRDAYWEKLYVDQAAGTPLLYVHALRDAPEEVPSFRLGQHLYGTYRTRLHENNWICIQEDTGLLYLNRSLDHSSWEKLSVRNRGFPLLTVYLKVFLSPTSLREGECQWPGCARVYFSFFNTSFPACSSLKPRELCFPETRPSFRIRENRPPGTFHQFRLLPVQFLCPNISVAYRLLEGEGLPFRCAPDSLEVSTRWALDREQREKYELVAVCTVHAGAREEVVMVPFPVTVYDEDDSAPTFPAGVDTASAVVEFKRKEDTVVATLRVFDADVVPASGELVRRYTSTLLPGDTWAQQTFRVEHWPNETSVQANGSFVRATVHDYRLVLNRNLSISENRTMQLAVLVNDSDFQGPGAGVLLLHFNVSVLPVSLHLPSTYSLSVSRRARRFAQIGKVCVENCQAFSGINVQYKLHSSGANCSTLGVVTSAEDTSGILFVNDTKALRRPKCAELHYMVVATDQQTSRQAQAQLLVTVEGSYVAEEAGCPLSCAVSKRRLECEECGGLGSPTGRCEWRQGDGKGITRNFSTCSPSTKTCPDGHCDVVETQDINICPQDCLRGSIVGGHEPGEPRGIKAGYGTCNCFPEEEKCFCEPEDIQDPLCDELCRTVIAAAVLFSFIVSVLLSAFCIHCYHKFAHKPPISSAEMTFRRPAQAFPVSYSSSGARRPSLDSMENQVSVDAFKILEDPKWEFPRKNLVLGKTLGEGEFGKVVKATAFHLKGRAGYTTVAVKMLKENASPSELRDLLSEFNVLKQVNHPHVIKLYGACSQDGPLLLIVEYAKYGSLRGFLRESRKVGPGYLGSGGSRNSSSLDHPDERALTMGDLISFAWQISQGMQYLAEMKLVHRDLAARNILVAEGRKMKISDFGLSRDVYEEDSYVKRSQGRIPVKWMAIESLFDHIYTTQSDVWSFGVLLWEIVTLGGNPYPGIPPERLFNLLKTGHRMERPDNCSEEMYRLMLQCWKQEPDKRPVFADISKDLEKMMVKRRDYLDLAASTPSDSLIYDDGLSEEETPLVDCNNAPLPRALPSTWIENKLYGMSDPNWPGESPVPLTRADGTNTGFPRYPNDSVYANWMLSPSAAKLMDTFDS

On to `COc1cc(NC(=O)Nc2cc(C(C)(C)C)on2)ccc1-c1cc(-c2ccc(OCCN3CCOCC3)cc2)[nH]n1`, for which the IC50 in the test on BaF3 [1] is 984 nM; in the test on BaF3 [2], 387 nM; in the test with BaF3 [3] it was 625 nM; in the test with BaF3 [5] it was 437 nM; in the test on BaF3 [6] it was 1130 nM. In addition, the Kd in test [4] turned out to be 32 nM.

Regarding `CC(C)(C)c1cc(NC(=O)Nc2ccc(-c3cc(-c4cccc(OCCN5CCOCC5)c4)[nH]n3)cc2)no1`, the IC50 in the test on BaF3 [1] amounted to 1020 nM; in the test with BaF3 [2], 226 nM; with BaF3 [3], 1560 nM; in the test on BaF3 [5] it was 188 nM; in the test on BaF3 [6], 587 nM. Moreover, the Kd in test [4] was determined as 6 nM.

`CC(C)(C)c1cc(NC(=O)Nc2ccc(-c3cc(-c4ccc(OCCN5CCOCC5)cc4)[nH]n3)cc2F)no1`: the IC50 with BaF3 [1] was 1320 nM; with BaF3 [2] it was 7.1 nM; with BaF3 [3], more than 3000 nM; in the test with BaF3 [5], 6.6 nM; with BaF3 [6] it was 99.9 nM. Besides, the dissociation constant Kd in test [4] is 8.1 nM.

For `Cc1cc(NC(=O)Nc2cc(C(C)(C)C)on2)ccc1-c1cc(-c2ccc(OCCN3CCOCC3)cc2)[nH]n1`, the IC50 with BaF3 [1] is 2020 nM; with BaF3 [2], 35.6 nM; with BaF3 [3], more than 10000 nM; with BaF3 [5] it was 33.9 nM; in the test with BaF3 [6] it was 196 nM. For the same molecule, the Kd in test [4] is 18 nM.

As for `CC(C)(C)c1cc(NC(=O)Nc2ccc(-c3cc(-c4ccc(OCCN5CCOCC5)cc4)[nH]n3)cc2Cl)no1`, the half-inhibitory concentration (IC50) with BaF3 [1] was 746 nM; with BaF3 [2], 29 nM; with BaF3 [3], more than 10000 nM; with BaF3 [5] it was 36 nM; in the test on BaF3 [6], 335 nM. Besides, the Kd in test [4] is 21 nM.

Take `CC(C)(C)c1cc(NC(=O)Nc2ccc(-c3cc(-c4ccc(OCCN5CCOCC5)cc4Br)[nH]n3)cc2)no1`: the half-inhibitory concentration (IC50) was 1280 nM in the test on BaF3 [1]; 67 nM in the test on BaF3 [2]; 1210 nM in the test with BaF3 [3]; 62 nM in the test on BaF3 [5]; 606 nM in the test with BaF3 [6]. In addition, the Kd in test [4] was 15.5 nM.

Regarding `COc1cc(-c2cc(-c3ccc(NC(=O)Nc4cc(C(C)(C)C(F)(F)F)on4)cc3)n[nH]2)ccc1OCCN1CCOCC1`, the IC50 in the test with BaF3 [1] worked out at 230 nM; with BaF3 [2], 7.1 nM; with BaF3 [3], 184 nM; in the test with BaF3 [5], 5.2 nM; in the test with BaF3 [6], 139 nM. For the same molecule, the Kd in test [4] turned out to be 5.6 nM.

`CC(C)(C)c1cc(NC(=O)Nc2ccc(-c3cc(-c4ccc(OCCN5CCOCC5)cc4)[nH]n3)c(Cl)c2)no1`: the half-maximal inhibitory concentration (IC50) came out at 1010 nM in the test on BaF3 [1]; 165 nM in the test with BaF3 [2]; 1050 nM in the test on BaF3 [3]; 209 nM with BaF3 [5]; 410 nM in the test on BaF3 [6]. Also, the Kd in test [4] was 16 nM.

For the molecule `CC(C)(C)c1cc(NC(=O)Nc2ccc(-c3cc(-c4ccc(OCCN5CCOCC5)cc4F)[nH]n3)cc2)no1`, the 50% inhibitory concentration (IC50) in the test on BaF3 [1] is more than 10000 nM; with BaF3 [2], 17.9 nM; in the test with BaF3 [3] it was more than 10000 nM; with BaF3 [5], 18.1 nM; in the test on BaF3 [6], 412 nM. Moreover, in test [4], the Kd came to 8.3 nM.

As to `COc1cc(-c2cc(-c3ccc(NC(=O)Nc4cc(C(C)(C)C)on4)cc3)n[nH]2)ccc1OCCN1CCOCC1`, the concentration for half-maximal inhibition (IC50) in the test on BaF3 [1] is 417 nM; in the test on BaF3 [2], 12.1 nM; in the test with BaF3 [3] it was 442 nM; with BaF3 [5], 10.4 nM; in the test with BaF3 [6] it was 131 nM. Besides, in test [4], the dissociation constant Kd came to 6.1 nM.

In the case of `CC(C)(C)c1cc(NC(=O)Nc2ccc(-c3cc(-c4ccc(OCCN5CCOCC5)c(F)c4)[nH]n3)cc2)no1`, the IC50 in the test with BaF3 [1] is 2250 nM; with BaF3 [2] it was 10.6 nM; in the test with BaF3 [3] it was more than 10000 nM; in the test on BaF3 [5], 14 nM; in the test on BaF3 [6] it was 126 nM. The dissociation constant (Kd) in test [4] worked out at 9.7 nM.

With `CO[C@]1(C(=O)N[C@@H](C)c2ccc(-n3cc(F)cn3)nc2)CC[C@@H](c2nc(C)cc(Nc3cc(C)[nH]n3)n2)CC1`, the IC50 with BaF3 [1] is 358 nM; in the test with BaF3 [2], 5 nM; with BaF3 [3], 1040 nM; in the test with BaF3 [5] it was 4.1 nM; in the test on BaF3 [6], 114 nM.

As for `CC(C)(C)c1cc(NC(=O)Nc2ccc(-c3cn(-c4ccc(OCCN5CCOCC5)cc4Cl)nn3)cc2)no1`, the IC50 worked out at 1070 nM with BaF3 [1]; 585 nM in the test on BaF3 [2]; 1090 nM in the test with BaF3 [3]; 1180 nM with BaF3 [5]; 1830 nM in the test on BaF3 [6]. Further, in test [4], the dissociation constant Kd came out at 26.5 nM.

Take `COc1ccc(CN2[C@@H]3C[C@H]2CN(c2ccc(-c4cc(OCC(C)(C)O)cn5ncc(C#N)c45)cn2)C3)cn1`: the IC50 was 883 nM with BaF3 [1]; 11.5 nM in the test with BaF3 [2]; more than 3000 nM with BaF3 [3]; 26 nM with BaF3 [5]; 1310 nM in the test with BaF3 [6].

Turning to `CC(C)(C)c1cc(NC(=O)Nc2ccc(-c3cc(-c4ccc(OCCN5CCOCC5)c(Cl)c4)[nH]n3)cc2)no1`, the IC50 with BaF3 [1] is more than 10000 nM; in the test on BaF3 [2], 20.4 nM; in the test on BaF3 [3] it was more than 10000 nM; in the test with BaF3 [5] it was 27.9 nM; with BaF3 [6], 159 nM. The Kd in test [4] amounted to 9.4 nM.

Take `CC(C)(C)c1cc(NC(=O)Nc2ccc(-c3cc(-c4ccc(OCCCN5CCOCC5)cc4)[nH]n3)cc2)no1`: the 50% inhibitory concentration (IC50) in the test with BaF3 [1] was determined as 570 nM; with BaF3 [2], 9.6 nM; in the test with BaF3 [3], 1080 nM; in the test on BaF3 [5], 12.4 nM; in the test on BaF3 [6], 166 nM. In addition, the Kd in test [4] was determined as 4.1 nM.

Consider `CN(C)CCOc1ccc(-c2cc(-c3ccc(NC(=O)Nc4cc(C(C)(C)C)on4)cc3)n[nH]2)cc1`, for which the IC50 stood at 842 nM in the test on BaF3 [1]; 7.9 nM with BaF3 [2]; 1950 nM in the test with BaF3 [3]; 8.5 nM in the test on BaF3 [5]; 103 nM in the test on BaF3 [6]. Besides, the Kd in test [4] was 3.2 nM.

For the molecule `CC(C)(C)c1cc(NC(=O)Nc2ccc(-c3cc(-c4ccc(OCCN5CCOCC5)cc4Cl)[nH]n3)cc2)no1`, the half-inhibitory concentration (IC50) with BaF3 [1] was 626 nM; in the test with BaF3 [2] it was 36.2 nM; with BaF3 [3], more than 10000 nM; with BaF3 [5], 35.5 nM; in the test with BaF3 [6], 533 nM. For the same molecule, the Kd in test [4] was 11 nM.

Regarding `COc1cc(-c2cc(-c3ccc(NC(=O)Nc4cc(C(C)(C)C(F)(F)F)on4)c(F)c3)n[nH]2)ccc1OCCN1CCOCC1`, the concentration for half-maximal inhibition (IC50) in the test on BaF3 [1] is 319 nM; in the test on BaF3 [2], 3 nM; with BaF3 [3], 373 nM; with BaF3 [5], 3.9 nM; with BaF3 [6] it was 118 nM. In addition, the Kd in test [4] came out at 9 nM.

In the case of `Cc1cc(OCCN2CCOCC2)ccc1-c1cc(-c2ccc(NC(=O)Nc3cc(C(C)(C)C)on3)cc2)n[nH]1`, the half-maximal inhibitory concentration (IC50) in the test on BaF3 [1] is 1960 nM; with BaF3 [2], 120 nM; in the test on BaF3 [3] it was more than 3000 nM; in the test with BaF3 [5] it was 173 nM; with BaF3 [6], 2040 nM. Also, the Kd in test [4] was found to be 12.5 nM.

With `CC(C)(C)c1cc(NC(=O)Nc2ccc(-c3n[nH]c(-c4ccc(OCCN5CCOCC5)cc4Cl)n3)cc2)no1`, the concentration for half-maximal inhibition (IC50) with BaF3 [1] came out at 869 nM; with BaF3 [2], 328 nM; in the test with BaF3 [3], 424 nM; in the test with BaF3 [5] it was 339 nM; in the test on BaF3 [6], 682 nM. Further, the Kd in test [4] amounted to 10.2 nM.

For the molecule `CN(C)CCCOc1ccc(-c2cc(-c3ccc(NC(=O)Nc4cc(C(C)(C)C)on4)cc3)n[nH]2)cc1`, the IC50 in the test with BaF3 [1] came to 532 nM; in the test with BaF3 [2] it was 9.3 nM; in the test on BaF3 [3] it was 1180 nM; in the test with BaF3 [5], 10.5 nM; with BaF3 [6], 131 nM. The dissociation constant (Kd) in test [4] came out at 2 nM.

On to `COc1cc(-c2cc(-c3ccc(NC(=O)Nc4cc(C(C)(C)C)on4)c(F)c3)n[nH]2)ccc1OCCN1CCOCC1`, for which the IC50 in the test with BaF3 [1] was 313 nM; in the test on BaF3 [2], 6.7 nM; in the test on BaF3 [3], more than 10000 nM; with BaF3 [5], 7.4 nM; in the test with BaF3 [6], 122 nM. Moreover, the dissociation constant Kd in test [4] came out at 10.2 nM.

Turning to `CC(C)(C)c1cc(NC(=O)Nc2ccc(-c3c[nH]c(-c4ccc(OCCN5CCOCC5)cc4Cl)n3)cc2)no1`, the 50% inhibitory concentration (IC50) worked out at 716 nM with BaF3 [1]; 404 nM with BaF3 [2]; 772 nM in the test with BaF3 [3]; 491 nM with BaF3 [5]; 802 nM in the test on BaF3 [6]. For the same molecule, the equilibrium dissociation constant (Kd) in test [4] was determined as 31.5 nM.
